The target of experiment [1] is T1, TYRO3 (Homo sapiens, UniProt Q06418).
T1 construct: purchased Life Technologies
T1 sequence (Q06418 41-890): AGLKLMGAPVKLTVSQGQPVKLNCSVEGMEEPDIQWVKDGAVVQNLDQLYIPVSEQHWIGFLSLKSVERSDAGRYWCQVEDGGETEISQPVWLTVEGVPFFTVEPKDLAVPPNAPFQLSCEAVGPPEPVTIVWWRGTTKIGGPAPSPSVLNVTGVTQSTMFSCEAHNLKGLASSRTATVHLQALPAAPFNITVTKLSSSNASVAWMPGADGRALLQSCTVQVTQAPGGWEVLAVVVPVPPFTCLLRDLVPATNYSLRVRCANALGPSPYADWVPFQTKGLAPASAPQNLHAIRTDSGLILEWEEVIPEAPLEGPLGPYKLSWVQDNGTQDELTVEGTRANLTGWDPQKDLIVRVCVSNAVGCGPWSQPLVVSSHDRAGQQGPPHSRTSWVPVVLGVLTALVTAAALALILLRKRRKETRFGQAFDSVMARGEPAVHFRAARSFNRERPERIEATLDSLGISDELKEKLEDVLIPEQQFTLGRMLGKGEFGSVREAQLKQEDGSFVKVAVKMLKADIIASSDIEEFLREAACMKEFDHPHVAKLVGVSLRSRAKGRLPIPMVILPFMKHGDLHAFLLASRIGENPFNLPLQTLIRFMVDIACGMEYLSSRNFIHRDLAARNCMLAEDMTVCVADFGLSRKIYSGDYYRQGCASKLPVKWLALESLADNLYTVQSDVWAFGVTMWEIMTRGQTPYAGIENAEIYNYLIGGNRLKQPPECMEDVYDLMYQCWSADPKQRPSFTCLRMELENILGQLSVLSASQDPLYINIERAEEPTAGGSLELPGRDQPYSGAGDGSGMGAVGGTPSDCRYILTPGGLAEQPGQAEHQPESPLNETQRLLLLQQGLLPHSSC
Kind of experiment: LanthaScreen Eu kinase binding assay, TYRO3. As to conditions: Tracer 236. Background: In TR-FRET formats the signal depends on donor and acceptor labels being close together.

Experiment [2] concerns the target T2, Met (Homo sapiens, UniProt P08581).
T2 construct: purchased Life Technologies
Put plainly: LanthaScreen Eu kinase binding assay, Met. As to conditions: Tracer 236, read-out: cMet kinase binding activity (Kd).

Experiment [3] relates to Axl phosphorylation in transiently transfected HEK293T cells. Kind of experiment: Cellular Axl phosphorylation assay. The experiment is classed as cell-based. As to conditions: Homo sapiens, HEK-293T; HEK293T cells transfected with Axl, 1 hour compound treatment, Phospho-Axl vs Total-Axl. An outline of the steps: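 HEK293T cells transiently transfected with Axl (empty pcDNA_DEST_40 vector as minimum control) were treated with compound in DMSO for 1 h, then lysed. Total and phospho-Axl in lysates were measured by Mesoscale electrochemiluminescence immunoassay. IC50 was taken relative to the DMSO vehicle and empty-vector controls.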

From patent US10934274B2, “Quinoline derivatives as TAM RTK inhibitors” (Qurient Co., Ltd., priority 2015, dated 2021) come the findings set out here.

T2 sequence (P08581 25-1390): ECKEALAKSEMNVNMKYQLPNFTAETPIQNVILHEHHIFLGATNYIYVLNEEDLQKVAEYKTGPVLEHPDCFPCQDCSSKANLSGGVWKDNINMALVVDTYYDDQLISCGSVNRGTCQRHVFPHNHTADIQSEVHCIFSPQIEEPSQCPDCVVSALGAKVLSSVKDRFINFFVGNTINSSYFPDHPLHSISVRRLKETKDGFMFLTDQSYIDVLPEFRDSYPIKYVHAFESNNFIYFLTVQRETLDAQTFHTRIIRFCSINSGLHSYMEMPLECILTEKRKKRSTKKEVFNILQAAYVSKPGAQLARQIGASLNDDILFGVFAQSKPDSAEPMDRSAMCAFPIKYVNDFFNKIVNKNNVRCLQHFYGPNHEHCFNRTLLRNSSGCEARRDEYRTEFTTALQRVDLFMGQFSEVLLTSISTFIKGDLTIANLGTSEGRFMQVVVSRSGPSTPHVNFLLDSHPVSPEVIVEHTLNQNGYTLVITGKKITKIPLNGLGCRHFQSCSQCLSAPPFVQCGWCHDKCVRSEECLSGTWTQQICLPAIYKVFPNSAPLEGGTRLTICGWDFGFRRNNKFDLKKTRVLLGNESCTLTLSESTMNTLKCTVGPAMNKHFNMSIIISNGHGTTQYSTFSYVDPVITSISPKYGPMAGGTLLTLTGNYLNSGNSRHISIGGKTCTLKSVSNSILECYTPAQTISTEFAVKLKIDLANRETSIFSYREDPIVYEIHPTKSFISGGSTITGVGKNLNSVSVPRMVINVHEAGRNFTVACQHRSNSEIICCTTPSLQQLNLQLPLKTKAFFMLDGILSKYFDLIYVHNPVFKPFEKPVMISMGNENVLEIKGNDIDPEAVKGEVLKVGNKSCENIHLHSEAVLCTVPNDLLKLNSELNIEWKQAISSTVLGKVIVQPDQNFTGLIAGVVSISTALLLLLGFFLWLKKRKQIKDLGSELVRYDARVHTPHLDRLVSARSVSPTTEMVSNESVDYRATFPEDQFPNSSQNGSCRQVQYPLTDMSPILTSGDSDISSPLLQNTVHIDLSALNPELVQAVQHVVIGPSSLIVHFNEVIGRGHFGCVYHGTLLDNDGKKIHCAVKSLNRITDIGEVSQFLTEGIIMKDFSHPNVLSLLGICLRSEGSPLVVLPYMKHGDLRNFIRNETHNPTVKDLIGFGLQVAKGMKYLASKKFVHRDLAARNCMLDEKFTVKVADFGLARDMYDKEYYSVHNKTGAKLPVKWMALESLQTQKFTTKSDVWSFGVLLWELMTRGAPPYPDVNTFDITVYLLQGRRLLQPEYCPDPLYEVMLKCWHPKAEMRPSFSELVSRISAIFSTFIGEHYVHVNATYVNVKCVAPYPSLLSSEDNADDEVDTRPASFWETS

As usually defined, the Kd is the free concentration of one partner at which half of the binding sites on the other are occupied at equilibrium, for simple one-to-one binding. What is called IC50 is the midpoint of a concentration-inhibition curve. The low end stands for higher potency, the high end for lower potency. Consider `CCOc1cnn(-c2ccco2)c1C(=O)Nc1ccc(Oc2ccnc3cc(OC)c(OC)cc23)cn1` [Compound 58], for which the Kd in experiment [1] and in experiment [2] was 100 to 1000 nM throughout. Also, the IC50 in experiment [3] was below 100 nM.
Regarding `CCOc1cnn(C)c1C(=O)Nc1ccc(Oc2ccnc3cc(OC)c(OC)cc23)cn1` [Compound 30], the figures for the Kd in experiment [1] and in experiment [2] were at least 1000 nM and 100 to 1000 nM, respectively. In experiment [3], this molecule yielded an IC50 below 100 nM.
The like results for `COc1cc2nccc(Oc3ccc(NC(=O)c4nn(-c5ccc(F)cc5F)cc4OCC4CC4)nc3)c2cc1OC` [Compound 267] were, in that order, below 100 nM, below 100 nM and below 100 nM.
For `COc1cc2c(Oc3ccc(NC(=O)c4nn(-c5cnc(N)nc5)cc4OCC(F)(F)F)nc3)ccnc2cc1OC(C)C` [Compound 257] the same measures were below 100 nM, below 100 nM and below 100 nM.
`CCOc1cn(-c2cnccc2CN(C)C)nc1C(=O)Nc1ccc(Oc2ccnc3cc(OC)c(OC)cc23)cn1` [Compound 73]: the Kd in experiment [1] and in experiment [2] was 100 to 1000 nM each time. For the same molecule, the IC50 in experiment [3] is below 100 nM.
Turning to `CCOc1cn(C2CCCN(C(C)=O)C2)nc1C(=O)Nc1ccc(Oc2ccnc3cc(OC)c(OC)cc23)cc1F` (stereo not drawn) [Compound 224], the Kd in experiment [1] and in experiment [2] was 100 to 1000 nM in each case. This molecule yielded an IC50 in experiment [3] below 100 nM.
Regarding `CCOc1cn(-c2ccncc2C)nc1C(=O)Nc1ccc(Oc2ccnc3cc(OC)c(OC)cc23)cn1` [Compound 34], the Kd in experiment [1] and in experiment [2] was below 100 nM each time. Moreover, the IC50 in experiment [3] was below 100 nM.
Take `CCOc1cn(-c2cccnc2Cl)nc1C(=O)Nc1ccc(Oc2ccnc3cc(OC)c(OC)cc23)cn1` [Compound 19]: the Kd in experiment [1] and in experiment [2] was below 100 nM throughout. Further, the IC50 in experiment [3] was below 100 nM.
For `COc1cc2nccc(Oc3ccc(NC(=O)c4nn(-c5cnccc5C(F)(F)F)cc4OCC4CC4)nc3)c2cc1OC` [Compound 247], the Kd in experiment [1] and in experiment [2] was below 100 nM each time. The molecule also returned an IC50 in experiment [3] below 100 nM.
Turning to `COc1cc2nccc(Oc3ccc(NC(=O)c4nn(-c5cnc(N)cn5)cc4OCC(F)(F)F)c(F)c3)c2cc1OC` [Compound 252], the Kd is below 100 nM in experiment [1] and at least 1000 nM in experiment [2]. Moreover, the IC50 in experiment [3] was below 100 nM.
For the molecule `CCOc1cn(-c2cnc(N)nc2)nc1C(=O)Nc1ccc(Oc2ccnc3cc(OC)c(OC(F)(F)F)cc23)cc1F` [Compound 242], the Kd in experiment [1] and in experiment [2] was at least 1000 nM in each case. The IC50 in experiment [3] was in the range of 100 to 1000 nM.
Consider `COc1cc2c(Oc3ccc(NC(=O)c4nn(-c5cnc(N)nc5)cc4OCC(F)(F)F)c(F)c3)ccnc2cc1OC(C)C` [Compound 243], for which the Kd in experiment [1] and in experiment [2] was below 100 nM each time. Further, in experiment [3], the IC50 was below 100 nM.
`CCOc1cn(-c2ccc(N(C)C)cc2Cl)nc1C(=O)Nc1ccc(Oc2ccnc3cc(OC)c(OC)cc23)cn1` [Compound 31]: the figures for the Kd in experiment [1] and in experiment [2] were at least 1000 nM and 100 to 1000 nM, respectively. In addition, the IC50 in experiment [3] was below 100 nM.
`CCOc1cn(Cc2cnccc2C)nc1C(=O)Nc1ccc(Oc2ccnc3cc(OC)c(OC)cc23)cc1F` [Compound 226]: the figures for the Kd in experiment [1] and in experiment [2] were 100 to 1000 nM and below 100 nM, respectively. The same molecule displayed an IC50 in experiment [3] below 100 nM.
Take `COc1cc2nccc(Oc3ccc(NC(=O)c4nn(-c5cnc(N)nc5)cc4OCC4COC4)nc3)c2cc1OC` [Compound 269]: the Kd in experiment [1] is below 100 nM; in experiment [2] it was 100 to 1000 nM. In experiment [3], this molecule had an IC50 below 100 nM.
For `COc1cc2nccc(Oc3ccc(NC(=O)c4nn(-c5ccc(F)cc5C)cc4OCC4CC4)nc3)c2cc1OC` [Compound 258], the Kd in experiment [1] and in experiment [2] was below 100 nM each time. In experiment [3], this molecule gave an IC50 below 100 nM.
Turning to `CCOc1cn(-c2cnc(C#N)nc2)nc1C(=O)Nc1ccc(Oc2ccnc3cc(OC)c(OC)cc23)cn1` [Compound 55], the Kd is below 100 nM in experiment [1] and 100 to 1000 nM in experiment [2]. The molecule further came in with an IC50 in experiment [3] below 100 nM.
`CCOc1cn(C2CCN(C)C2)nc1C(=O)Nc1ccc(Oc2ccnc3cc(OC)c(OC)cc23)cc1F` (stereo not drawn) [Compound 212]: the Kd in experiment [1] and in experiment [2] was 100 to 1000 nM in each case. The molecule also showed an IC50 in experiment [3] below 100 nM.
As for `CCOc1cnn(C2CCCN(C)C2)c1C(=O)Nc1ccc(Oc2ccnc3cc(OC)c(OC)cc23)cc1F` (stereo not drawn) [Compound 213], the Kd in experiment [1] and in experiment [2] was at least 1000 nM in each case. Moreover, in experiment [3], the IC50 is 100 to 1000 nM.
`CCOc1cn(C(C)(C)C(=O)NC)nc1C(=O)Nc1ccc(Oc2ccnc3cc(OC)c(OC)cc23)cn1` [Compound 68]: the Kd in experiment [1] was at least 1000 nM; in experiment [2], 100 to 1000 nM. Moreover, the IC50 in experiment [3] is below 100 nM.
For `CCOc1cn(C2CCCN(C(N)=O)C2)nc1C(=O)Nc1ccc(Oc2ccnc3cc(OC)c(OC)cc23)cc1F` (stereo not drawn) [Compound 225] the same measures were 100 to 1000 nM, 100 to 1000 nM and 100 to 1000 nM.
The like results for `CCOc1cn(-c2ccc(OC)cc2)nc1C(=O)Nc1ccc(Oc2ccnc3cc(OC)c(OC)cc23)cn1` [Compound 1] were, in that order, 100 to 1000 nM, below 100 nM and below 100 nM.
The like results for `CCOc1cn(-c2ccc(C#N)cn2)nc1C(=O)Nc1ccc(Oc2ccnc3cc(OC)c(OC)cc23)cn1` [Compound 43] were, in that order, at least 1000 nM, at least 1000 nM and at least 1000 nM.
Take `CCOc1cn(-c2cccnc2C)nc1C(=O)Nc1ccc(Oc2ccnc3cc(OC)c(OC)cc23)cn1` [Compound 23]: the Kd in experiment [1] and in experiment [2] was below 100 nM each time. Besides, the IC50 in experiment [3] is below 100 nM.
Regarding `COc1cc2nccc(Oc3ccc(NC(=O)c4nn(-c5cnc(N)nc5)cc4OC(F)F)nc3)c2cc1OC` [Compound 254], the Kd in experiment [1] and in experiment [2] was at least 1000 nM throughout. The molecule also came in with an IC50 in experiment [3] below 100 nM.
Regarding `CCOc1cn(-c2ccnnc2)nc1C(=O)Nc1ccc(Oc2ccnc3cc(OC)c(OC)cc23)cn1` [Compound 40], the Kd was at least 1000 nM in experiment [1] and below 100 nM in experiment [2]. In experiment [3], this molecule displayed an IC50 of 100 to 1000 nM.
For `CCOc1cn(CC2CCO2)nc1C(=O)Nc1ccc(Oc2ccnc3cc(OC)c(OC)cc23)cn1` (stereo not drawn) [Compound 48] the same measures were below 100 nM, 100 to 1000 nM and below 100 nM.
Take `COc1cc2c(Oc3ccc(NC(=O)c4nn(-c5cnc(N)cn5)cc4OCC(F)(F)F)c(F)c3)ccnc2cc1OC(C)C` [Compound 246]: the Kd in experiment [1] was below 100 nM; in experiment [2], at least 1000 nM. Further, the IC50 in experiment [3] is below 100 nM.
Consider `CCOc1cnn(-c2ccsc2)c1C(=O)Nc1ccc(Oc2ccnc3cc(OC)c(OC)cc23)cn1` [Compound 21], for which the Kd in experiment [1] and in experiment [2] was 100 to 1000 nM throughout. The same molecule showed an IC50 in experiment [3] below 100 nM.
With `CCOc1cn(CC)nc1C(=O)Nc1ccc(Oc2ccnc3cc(OC)c(OC)cc23)cn1` [Compound 27], the Kd in experiment [1] is below 100 nM; in experiment [2], 100 to 1000 nM. In experiment [3], this molecule displayed an IC50 below 100 nM.
Regarding `COc1cc2nccc(Oc3ccc(NC(=O)c4nn(-c5cnc(N)nc5)cc4OCC(F)(F)F)c(F)c3)c2cc1OC` [Compound 259], the Kd in experiment [1] and in experiment [2] was below 100 nM throughout. In experiment [3], this molecule gave an IC50 below 100 nM.
Turning to `COc1cc2nccc(Oc3ccc(NC(=O)c4nn(-c5cnc(N)cn5)cc4OCC4CC4)nc3)c2cc1OC` [Compound 249], the Kd in experiment [1] and in experiment [2] was below 100 nM throughout. The IC50 in experiment [3] was below 100 nM.
On to `CCOc1oc(-c2cccnc2)nc1C(=O)Nc1ccc(Oc2ccnc3cc(OC)c(OC)cc23)cn1` [Compound 44], for which the Kd is at least 1000 nM in experiment [1] and below 100 nM in experiment [2]. The molecule further returned an IC50 in experiment [3] below 100 nM.
On to `COc1cc2nccc(Oc3ccc(NC(=O)c4nn(-c5ccc(F)cc5C5CCCC5)cc4OCC4CC4)nc3)c2cc1OC` [Compound 270], for which the Kd in experiment [1] and in experiment [2] was 100 to 1000 nM throughout. In experiment [3], this molecule yielded an IC50 below 100 nM.
For the molecule `COc1cc2nccc(Oc3ccc(NC(=O)c4nn(-c5ccc(F)cc5N5CCOCC5)cc4OCC4CC4)nc3)c2cc1OC` [Compound 266], the Kd in experiment [1] and in experiment [2] was below 100 nM each time. For the same molecule, the IC50 in experiment [3] is below 100 nM.
For the molecule `COc1cc2nccc(Oc3ccc(NC(=O)c4nn(-c5cnc(N)nc5)cc4OC(C)C)nc3)c2cc1OC` [Compound 260], the Kd in experiment [1] and in experiment [2] was below 100 nM in each case. Besides, the IC50 in experiment [3] was below 100 nM.
